Data published in the supplement of paper PMC10307832.

Legend:
Experiment in all cases: relative viability (nuclei count vs DMSO), 5 days (fraction); higher = more cells survive
RAF265 + Palbociclib = compound: Cn1c(Nc2ccc(C(F)(F)F)cc2)nc2cc(Oc3ccnc(-c4ncc(C(F)(F)F)[nH]4)c3)ccc21 [RAF265] + CC(=O)c1c(C)c2cnc(Nc3ccc(N4CCNCC4)cn3)nc2n(C2CCCC2)c1=O [Palbociclib] (partner 0.5 µM)
Summary of the method: (§1)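 Lung cancer cell lines in 1536-well plates got either a single drug or a fixed anchor-drug dose together with five library-drug doses (not always all listed) in √10 steps, by pin tool, on the day after seeding. Nuclei were counted after 5 days, and relative viability is the treated-to-vehicle ratio of nuclei counts. Values are medians of duplicate plates.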

[1] = compound: Cc1ccc(-n2nc(C(C)(C)C)cc2NC(=O)Nc2ccc(OCCN3CCOCC3)c3ccccc23)cc1 [Doramapimod] + CC(=O)c1c(C)c2cnc(Nc3ccc(N4CCNCC4)cn3)nc2n(C2CCCC2)c1=O [Palbociclib] (partner 0.5 µM)
Summary of the method: as §1

IPA-3 + AZD7762 = compound: C1=CC=C2C(=C1)C=CC(=C2SSC3=C(C=CC4=CC=CC=C43)O)O [IPA-3] + NC(=O)Nc1cc(-c2cccc(F)c2)sc1C(=O)N[C@H]1CCCNC1 [AZD7762] (partner 0.2 µM)
Summary of the method: as §1

IPA-3 + Navitoclax = compound: C1=CC=C2C(=C1)C=CC(=C2SSC3=C(C=CC4=CC=CC=C43)O)O [IPA-3] + CC1(C)CCC(c2ccc(Cl)cc2)=C(CN2CCN(c3ccc(C(=O)NS(=O)(=O)c4ccc(N[C@H](CCN5CCOCC5)CSc5ccccc5)c(S(=O)(=O)C(F)(F)F)c4)cc3)CC2)C1 [Navitoclax] (partner 0.5 µM)
Summary of the method: as §1

Cell Line	relative viability (RAF265 + Palbociclib; first compound 0.01 µM)	relative viability (RAF265 + Palbociclib; first compound 0.03162 µM)	relative viability (RAF265 + Palbociclib; first compound 0.1 µM)	relative viability (RAF265 + Palbociclib; first compound 0.3162 µM)	relative viability (RAF265 + Palbociclib; first compound 1 µM)	relative viability ([1]; first compound 0.02 µM)	relative viability ([1]; first compound 0.06325 µM)	relative viability ([1]; first compound 0.2 µM)	relative viability ([1]; first compound 0.6325 µM)	relative viability ([1]; first compound 2 µM)	relative viability (IPA-3 + AZD7762; first compound 0.2 µM)	relative viability (IPA-3 + AZD7762; first compound 0.6325 µM)	relative viability (IPA-3 + AZD7762; first compound 2 µM)	relative viability (IPA-3 + AZD7762; first compound 6.325 µM)	relative viability (IPA-3 + AZD7762; first compound 20 µM)	relative viability (IPA-3 + Navitoclax; first compound 0.2 µM)	relative viability (IPA-3 + Navitoclax; first compound 0.6325 µM)	relative viability (IPA-3 + Navitoclax; first compound 2 µM)	relative viability (IPA-3 + Navitoclax; first compound 6.325 µM)	relative viability (IPA-3 + Navitoclax; first compound 20 µM)
NCI-H522	1.01	1.03	1.26	0.99	0.863	1.02	1.04	1.03	0.954	0.817	0.974	0.809	0.759	1.02	0.91	–	–	–	–	–
NCI-H1944	0.356	0.367	0.291	0.261	0.185	0.321	0.306	0.322	0.307	0.271	0.766	0.492	0.536	0.718	0.541	1.07	0.899	1.1	1.07	1.02
NCI-H727	0.684	0.626	0.692	0.611	0.602	0.603	0.639	0.656	0.705	0.692	0.652	0.604	0.674	0.617	0.706	0.447	0.377	0.442	0.614	0.556
NCI-H1650	0.385	0.319	0.418	0.278	0.277	0.411	0.363	0.428	0.425	0.35	–	–	–	–	–	1.37	1.26	1.12	1.09	1.34
HCC-827	0.462	0.494	0.489	–	0.395	0.456	0.479	0.493	0.475	0.329	0.256	0.281	0.253	0.355	0.286	1.01	1.01	1	0.99	0.993
HCC-366	0.403	0.312	0.286	0.205	0.137	0.397	0.379	0.373	0.412	0.351	0.443	0.337	0.334	0.432	0.316	1.18	1.01	1.19	1.03	1.18
HARA	0.298	0.277	0.235	0.215	0.178	0.232	0.275	0.262	0.297	0.264	0.341	0.324	0.339	1.04	0.273	1.18	1.09	1.12	1.01	1.2
NCI-H322M	0.474	0.498	0.425	0.381	0.326	0.458	0.492	0.483	0.554	0.486	0.503	0.6	0.616	0.808	0.786	1.29	1.12	1.17	1.25	1.29
LXF-289	0.622	0.615	0.625	0.498	0.313	0.6	0.586	0.615	0.567	0.63	1.22	1.01	1.17	1.25	1.22	0.992	0.911	1.01	0.957	1.04
PC-3 [JPC-3]	0.55	0.538	0.524	0.437	0.429	0.588	0.549	0.549	0.571	0.565	0.926	1.34	0.916	0.741	0.807	0.813	0.691	0.823	0.803	0.842
CAL-12T	0.622	0.488	0.364	0.27	0.178	0.413	0.45	0.421	0.434	0.511	0.634	0.662	0.661	0.629	0.686	1.41	1.21	1.39	1.19	1.23
COR-L 105	0.425	0.36	0.385	0.371	0.358	0.398	0.421	0.404	0.449	0.351	–	–	–	–	–	0.866	1.07	0.925	0.644	0.782
NCI-H2347	0.485	0.405	0.406	0.391	0.363	0.474	0.466	0.483	0.383	0.513	0.789	0.604	0.777	0.738	0.904	0.962	0.792	0.633	0.88	0.988
A549	–	–	–	–	–	–	–	–	–	–	–	–	–	–	–	1.27	1.21	1.39	1.28	1.18
NCI-H1648	0.287	0.283	0.266	0.26	0.242	0.262	0.293	0.248	0.249	0.234	0.673	0.863	0.751	0.621	0.825	–	–	–	–	–
SK-LU-1	0.399	0.342	0.33	0.318	0.251	0.4	0.4	0.396	0.401	0.337	–	–	–	–	–	1.39	–	0.786	0.878	0.971
Calu-6	–	–	–	–	–	–	–	–	–	–	–	–	–	–	–	0.794	0.839	0.833	0.753	0.536
LCLC-103H	0.463	0.47	0.496	0.404	0.322	0.43	0.396	0.432	0.42	0.439	0.862	0.814	0.744	0.788	0.872	–	–	–	–	–

Cell Line	relative viability (RAF265 + Palbociclib; first compound 0.01 µM)	relative viability (RAF265 + Palbociclib; first compound 0.03162 µM)	relative viability (RAF265 + Palbociclib; first compound 0.1 µM)	relative viability (RAF265 + Palbociclib; first compound 0.3162 µM)	relative viability (RAF265 + Palbociclib; first compound 1 µM)	relative viability ([1]; first compound 0.02 µM)	relative viability ([1]; first compound 0.06325 µM)	relative viability ([1]; first compound 0.2 µM)	relative viability ([1]; first compound 0.6325 µM)	relative viability ([1]; first compound 2 µM)	relative viability (IPA-3 + AZD7762; first compound 0.2 µM)	relative viability (IPA-3 + AZD7762; first compound 0.6325 µM)	relative viability (IPA-3 + AZD7762; first compound 2 µM)	relative viability (IPA-3 + AZD7762; first compound 6.325 µM)	relative viability (IPA-3 + AZD7762; first compound 20 µM)	relative viability (IPA-3 + Navitoclax; first compound 0.2 µM)	relative viability (IPA-3 + Navitoclax; first compound 0.6325 µM)	relative viability (IPA-3 + Navitoclax; first compound 2 µM)	relative viability (IPA-3 + Navitoclax; first compound 6.325 µM)	relative viability (IPA-3 + Navitoclax; first compound 20 µM)
NCI-H596	–	–	–	–	–	–	–	–	–	–	1.1	1.07	1.11	1.21	1.3	0.969	1.08	0.985	0.894	1.16
NCI-H661	0.457	0.408	0.337	0.326	0.344	0.447	0.407	0.404	0.427	0.39	–	–	–	–	–	–	–	–	–	–
NCI-H2342	0.582	0.547	0.558	0.468	0.474	0.523	0.585	0.632	0.524	0.535	0.429	0.563	0.502	0.681	0.542	–	–	–	–	–
COR-L23	0.295	0.233	0.235	0.184	0.148	0.29	0.317	0.298	0.338	0.283	–	–	–	–	–	1.11	0.975	1.07	0.983	0.926
NCI-H1299	–	–	–	–	–	–	–	–	–	–	–	–	–	–	–	1.08	1.08	1.03	1.01	1.03
NCI-H650	0.306	0.345	0.303	0.232	0.206	0.368	0.341	0.395	0.343	0.345	1.1	1.01	1.08	0.935	1.08	–	–	–	–	–
NCI-H358	0.129	0.117	0.116	0.129	0.124	0.153	0.137	0.138	0.195	0.133	0.618	0.566	0.5	0.508	0.48	–	–	–	–	–
SW 1573	0.419	0.328	0.312	0.245	0.215	0.449	0.358	0.298	0.354	0.313	–	–	–	–	–	0.99	0.67	1.21	1.09	1.13
SK-MES-1	0.291	0.233	0.241	0.252	0.204	0.316	0.288	0.341	0.316	0.269	–	–	–	–	–	1.26	1.12	1.3	–	1.04
SW 900	0.582	0.558	0.519	0.396	0.237	0.57	0.537	0.558	0.584	0.531	0.823	0.64	0.631	0.605	0.786	–	–	–	–	–
NCI-H2023	0.411	0.34	0.37	0.291	0.268	0.299	0.367	0.296	0.392	0.323	–	–	–	–	–	1.1	0.977	0.984	1.04	0.967
EBC-1	–	–	–	–	–	–	–	–	–	–	–	–	–	–	–	0.417	0.392	0.387	0.333	0.309
NCI-H2009	0.264	0.224	0.162	0.17	0.144	0.26	0.262	0.3	0.314	0.247	–	–	–	–	–	1.29	1.17	1.19	1.16	1.15
NCI-H2228	0.721	0.73	0.818	0.333	0.284	0.797	1.04	0.746	0.686	0.66	–	–	–	–	–	0.917	0.89	0.788	0.886	1.02
IA-LM	–	–	–	–	–	–	–	–	–	–	–	–	–	–	–	0.793	0.683	0.765	0.601	0.392
ABC-1	0.633	0.644	0.646	0.528	0.47	0.642	0.732	0.683	0.845	0.817	0.888	0.766	0.737	0.992	0.965	–	–	–	–	–
NCI-H520	0.264	0.218	0.239	0.191	0.155	0.214	0.222	0.21	0.213	0.214	–	–	–	–	–	1.16	0.971	0.863	1.02	1.12
NCI-H1703	–	–	–	–	–	–	–	–	–	–	0.119	0.121	0.126	0.145	0.133	1.71	0.991	1.05	1.13	0.765
